Results taken from patent US20260158009A1 (GENZYME CORPORATION, priority 2023, published 2026).

Key:
[1] = biological target: T1, hRIPK1 (aa 1-375) fusion protein (Homo sapiens, UniProt Q13546); assay: ADP-Glo kinase assay: catalytic activity of RIPK1 (autophosphorylation, conversion of ATP to ADP); assay type: biochemical
T1 construct: hRIPK1 (aa 1-375) fusion protein
T1 sequence (Q13546 1-375): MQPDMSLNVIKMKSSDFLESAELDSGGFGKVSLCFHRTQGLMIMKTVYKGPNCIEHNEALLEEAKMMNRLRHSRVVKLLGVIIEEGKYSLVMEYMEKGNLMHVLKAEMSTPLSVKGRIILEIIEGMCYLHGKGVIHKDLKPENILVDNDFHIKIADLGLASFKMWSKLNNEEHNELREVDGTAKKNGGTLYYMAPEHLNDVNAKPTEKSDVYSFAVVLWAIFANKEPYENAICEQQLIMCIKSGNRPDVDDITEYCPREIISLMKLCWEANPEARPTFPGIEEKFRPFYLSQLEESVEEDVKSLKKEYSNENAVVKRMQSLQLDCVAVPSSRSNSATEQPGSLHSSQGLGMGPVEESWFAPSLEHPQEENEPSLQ
Procedure, shortened: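 The readout was ADP-Glo luminescence after a 240 min rt autophosphorylation reaction with 50 μM ATP, following 30 min preincubation of 3.6 μg/ml hRIPK1 (aa 1-375) fusion with compound at 33300-1.69 nM final in 1% DMSO. Values came from Levenberg-Marquardt nonlinear fits.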

[2] = system: U937 cells; assay: Cellular assay in U937 cells: activity of RIPK1 inhibitors on TNFα/zVAD.fmk-induced cell death (necroptosis), CellTiter 96 AQueous (MTS) readout; assay type: cell-based; settings: Homo sapiens, U-937
Procedure, shortened: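 Necroptosis was measured by viable-cell MTS reduction (4 h, absorbance 490 nm) after overnight (18–24 h) 37° C culture. Cell suspensions of U937 cells carried TNFα (100 ng/ml) plus zVAD.fmk (50 μM) before compound was added. A 10-point curve (10 μM–0.26 nM or 1 μM–0.07 nM) was run in duplicate, normalised to the control lacking TNFα/zVAD.fmk.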

SMILES | IC50 [1] | IC50 [2]
Cc1nn(C[C@H]2CC[C@H](C(=O)N3OCC[C@H]3c3cc(F)cc(F)c3)CC2)c2cc(C#N)c(F)cc12 [compound 84] | 13 nM | 4 nM
Cc1nn(C[C@H]2CC[C@H](C(=O)N3OCC[C@H]3c3cc(F)cc(C#N)c3)CC2)c2cc(C#N)c(F)cc12 [compound 85, trans-1-((4-((S)-3-(3-cyano-5-fluorophenyl)isoxazolidine-2-carbonyl)cyclohexyl)methyl)-5-fluoro-3-methyl-1H-indazole-6-carbonitrile] | 21 nM | 3 nM
N#Cc1cc2c(cnn2C[C@H]2CC[C@H](C(=O)N3OCC[C@H]3c3cc(F)cc(F)c3)CC2)cc1F [compound 86, trans-1-((4-((S)-3-(3,5-difluorophenyl)isoxazolidine-2-carbonyl)cyclohexyl)methyl)-5-fluoro-1H-indazole-6-carbonitrile] | 14 nM | 1 nM
N#Cc1cc(F)cc([C@@H]2CCON2C(=O)[C@H]2CC[C@H](Cn3ncc4cc(F)c(C#N)cc43)CC2)c1 [compound 87, trans-1-((4-((S)-3-(3-cyano-5-fluorophenyl)isoxazolidine-2-carbonyl)cyclohexyl)methyl)-5-fluoro-1H-indazole-6-carbonitrile] | 18 nM | 3 nM
Cc1ncn(C[C@H]2CC[C@H](C(=O)N3OCC[C@H]3c3cc(F)cc(C#N)c3)CC2)c1C#N [compound 88, trans-1-((4-((S)-3-(3-cyano-5-fluorophenyl)isoxazolidine-2-carbonyl)cyclohexyl)methyl)-4-methyl-1H-imidazole-5-carbonitrile] | 52 nM | 157 nM
Cc1ncn(C[C@H]2CC[C@H](C(=O)N3OCC[C@H]3c3cc(F)cc(F)c3)CC2)c1C#N [compound 89, trans-1-((4-((S)-3-(3,5-difluorophenyl)isoxazolidine-2-carbonyl)cyclohexyl)methyl)-4-methyl-1H-imidazole-5-carbonitrile] | 34 nM | 38 nM
Cc1c(C#N)ncn1C[C@H]1CC[C@H](C(=O)N2OCC[C@H]2c2cc(F)cc(C#N)c2)CC1 [compound 90, trans-1-((4-((S)-3-(3-cyano-5-fluorophenyl)isoxazolidine-2-carbonyl)cyclohexyl)methyl)-5-methyl-1H-imidazole-4-carbonitrile] | 75 nM | 147 nM
Cc1c(C#N)ncn1C[C@H]1CC[C@H](C(=O)N2OCC[C@H]2c2cc(F)cc(F)c2)CC1 [compound 91, trans-1-((4-((S)-3-(3,5-difluorophenyl)isoxazolidine-2-carbonyl)cyclohexyl)methyl)-5-methyl-1H-imidazole-4-carbonitrile] | 39 nM | 67 nM
O=C([C@H]1CC[C@H](Cn2cnc3cc(F)ccc32)CC1)N1OCC[C@H]1c1cnccn1 [compound 92, trans-(4-((5-fluoro-1H-benzo[d]imidazol-1-yl)methyl)cyclohexyl)((S)-3-(pyrazin-2-yl)isoxazolidin-2-yl)methanone] | 75 nM | 132 nM
N#Cc1cc(F)cc([C@@H]2CCON2C(=O)[C@H]2CC[C@H](Cn3ccc4ncc(F)cc43)CC2)c1 [compound 93, trans-3-fluoro-5-((S)-2-(4-((6-fluoro-1H-pyrrolo[3,2-b]pyridin-1-yl)methyl)cyclohexane-1-carbonyl)isoxazolidin-3-yl)benzonitrile] | 20 nM | 2 nM
O=C([C@H]1CC[C@H](Cn2ccc3ncc(F)cc32)CC1)N1OCC[C@H]1c1cc(F)cc(F)c1 [compound 94, trans-((S)-3-(3,5-difluorophenyl)isoxazolidin-2-yl)(4-((6-fluoro-1H-pyrrolo[3,2-b]pyridin-1-yl)methyl)cyclohexyl)methanone] | 19 nM | 1 nM
N#Cc1cc(F)cc([C@@H]2CCON2C(=O)[C@H]2CC[C@H](Cn3ccc4cc(F)ccc43)CC2)c1 [compound 95, trans-3-fluoro-5-((S)-2-(4-((5-fluoro-1H-indol-1-yl)methyl)cyclohexane-1-carbonyl)isoxazolidin-3-yl)benzonitrile] | 22 nM | 4 nM
O=C([C@H]1CC[C@H](Cn2ccc3cc(F)ccc32)CC1)N1OCC[C@H]1c1cc(F)cc(F)c1 [compound 96, trans-((S)-3-(3,5-difluorophenyl)isoxazolidin-2-yl)(4-((5-fluoro-1H-indol-1-yl)methyl)cyclohexyl)methanone] | 16 nM | 2 nM
N#Cc1cc2ncn(C[C@H]3CC[C@H](C(=O)N4OCC[C@H]4c4cnccn4)CC3)c2cc1F [compound 97, trans-6-fluoro-1-((4-((S)-3-(pyrazin-2-yl)isoxazolidine-2-carbonyl)cyclohexyl)methyl)-1H-benzo[d]imidazole-5-carbonitrile] | 78 nM | 214 nM
N#Cc1cc2c(cc1F)ncn2C[C@H]1CC[C@H](C(=O)N2OCC[C@H]2c2cnccn2)CC1 [compound 98, trans-5-fluoro-1-((4-((S)-3-(pyrazin-2-yl)isoxazolidine-2-carbonyl)cyclohexyl)methyl)-1H-benzo[d]imidazole-6-carbonitrile] | 32 nM | 84 nM
N#Cc1cc(F)cc([C@@H]2CCON2C(=O)[C@H]2CC[C@H](Cn3ccc4nc(C#N)ccc43)CC2)c1 [compound 99, trans-1-[[4-[(3S)-3-(3-cyano-5-fluoro-phenyl)isoxazolidine-2-carbonyl]cyclohexyl]methyl]pyrrolo[3,2-b]pyridine-5-carbonitrile] | 37 nM | 33 nM
Cc1nn(C[C@H]2CC[C@H](C(=O)N3OCC[C@H]3c3cc(F)cc(C#N)c3)CC2)c2cc(C#N)cc(F)c12 [compound 100, trans-1-((4-((S)-3-(3-cyano-5-fluorophenyl)isoxazolidine-2-carbonyl)cyclohexyl)methyl)-4-fluoro-3-methyl-1H-indazole-6-carbonitrile] | 17 nM | 4 nM
Cc1nn(C[C@H]2CC[C@H](C(=O)N3OCC[C@H]3c3cc(F)cc(F)c3)CC2)c2cc(C#N)cc(F)c12 [compound 101, trans-1-((4-((S)-3-(3,5-difluorophenyl)isoxazolidine-2-carbonyl)cyclohexyl)methyl)-4-fluoro-3-methyl-1H-indazole-6-carbonitrile] | 18 nM | 4 nM
Cc1nn(C[C@H]2CC[C@H](C(=O)N3OCC[C@H]3c3cc(F)cc(C#N)c3)CC2)c2cc(C(N)=O)cc(F)c12 [compound 102, trans-1-((4-((S)-3-(3-cyano-5-fluorophenyl)isoxazolidine-2-carbonyl)cyclohexyl)methyl)-4-fluoro-3-methyl-1H-indazole-6-carboxamide] | 23 nM | 37 nM
Cc1nn(C[C@H]2CC[C@H](C(=O)N3OCC[C@H]3c3cc(F)cc(F)c3)CC2)c2cc(C(N)=O)cc(F)c12 [compound 103, trans-1-((4-((S)-3-(3,5-difluorophenyl)isoxazolidine-2-carbonyl)cyclohexyl)methyl)-4-fluoro-3-methyl-1H-indazole-6-carboxamide] | 23 nM | 22 nM
N#Cc1cc(F)cc([C@@H]2CCON2C(=O)[C@H]2CC[C@H](Cn3ccc4ccc(C(N)=O)cc43)CC2)c1 [compound 104, trans-1-((4-((S)-3-(3-cyano-5-fluorophenyl)isoxazolidine-2-carbonyl)cyclohexyl)methyl)-1H-indole-6-carboxamide] | 18 nM | 5 nM
NC(=O)c1ccc2ccn(C[C@H]3CC[C@H](C(=O)N4OCC[C@H]4c4cc(F)cc(F)c4)CC3)c2c1 [compound 105, trans-1-((4-((S)-3-(3,5-difluorophenyl)isoxazolidine-2-carbonyl)cyclohexyl)methyl)-1H-indole-6-carboxamide] | 15 nM | 4 nM
N#Cc1cncc([C@@H]2CCON2C(=O)[C@H]2CC[C@H](Cn3cnc4ccc(F)cc43)CC2)c1 [compound 106, trans-5-((S)-2-(4-((6-fluoro-1H-benzo[d]imidazol-1-yl)methyl)cyclohexane-1-carbonyl)isoxazolidin-3-yl)nicotinonitrile] | 46 nM | 54 nM
N#Cc1cncc([C@@H]2CCON2C(=O)[C@H]2CC[C@H](Cn3cnc4cc(F)ccc43)CC2)c1 [compound 107, trans-5-((S)-2-(4-((5-fluoro-1H-benzo[d]imidazol-1-yl)methyl)cyclohexane-1-carbonyl)isoxazolidin-3-yl)nicotinonitrile] | 39 nM | 108 nM
N#Cc1cncc([C@@H]2CCON2C(=O)[C@H]2CC[C@H](Cn3ccc4ncc(C#N)cc43)CC2)c1 [compound 108, trans-1-((4-((S)-3-(5-cyanopyridin-3-yl)isoxazolidine-2-carbonyl)cyclohexyl)methyl)-1H-pyrrolo[3,2-b]pyridine-6-carbonitrile] | 27 nM | 18 nM
Cc1ccc(C[C@H]2CC[C@H](C(=O)N3OCC[C@H]3c3cc(F)cc(C#N)c3)CC2)cc1C#N [compound 109, trans-5-((4-((S)-3-(3-cyano-5-fluorophenyl)isoxazolidine-2-carbonyl)cyclohexyl)methyl)-2-methylbenzonitrile] | 19 nM | 1 nM
